Here are results for 28 compounds from patent US20250188069A1, “COMPOUNDS AND METHODS FOR DEGRADING CASEIN KINASE 1 ALPHA” (PIN THERAPEUTICS, INC., priority 2022, published 2025).

In this experiment the test system is MV-4-11 cells. Kind of experiment: AML cell viability assay (RealTime-Glo). Format: cell-based. The settings on record: Homo sapiens, MV4-11, IC50 class, MV-4-11 cells, read-out: Cell viability classification.
The mark [1] stands for this setting: RealTime-Glo after 44 hrs of treatment (TABLE 1).
Setting [2] is: RealTime-Glo after 44 hrs of treatment (TABLE 4).

Counter-ions that a name gives are not always drawn. Like-named read-outs stand apart in the source and are kept apart here. Some results are limits rather than exact numbers.

For the compound `CCCCCN(c1cccc2c1CN(C1CCC(=O)NC1=O)C2=O)[C@H]1CCC[C@H](N)C1` (stereo partly drawn) [Compound 327, 3-(4-(((1S,3S)-3-aminocyclohexyl)(pentyl)amino)-1-oxoisoindolin-2-yl)piperidine-2,6-dione], under setting [1], the IC50 was < 100 nM.

With `CCCCCN(c1cccc2c1CN(C1CCC(=O)NC1=O)C2=O)[C@H]1CCC[C@@H](N)C1` (stereo partly drawn) [Compound 328, 3-(4-(((1S,3R)-3-aminocyclohexyl)(pentyl)amino)-1-oxoisoindolin-2-yl)piperidine-2,6-dione], under setting [1], the IC50 is < 100 nM.

As to `C[C@H]1CC[C@@H](N(c2cccc3c2CN(C2CCC(=O)NC2=O)C3=O)[C@H]2CC[C@H](N)CC2)CC1` (stereo partly drawn) [Compound 331, 3-(4-(((1r,4R)-4-aminocyclohexyl)((1s,4S)-4-methylcyclohexyl)amino)-1-oxoisoindolin-2-yl)piperidine-2,6-dione], the IC50 (RealTime-Glo after 44 hrs of treatment (TABLE 3)) is > 1000 nM.

For `CC(C)(C)CCN(c1cccc2c1CN(C1CCC(=O)NC1=O)C2=O)[C@H]1CC[C@@H](CN)CC1` (stereo partly shown) [Compound 332, 3-(4-(((1s,4s)-4-(aminomethyl)cyclohexyl)(3,3-dimethylbutyl)amino)-1-oxoisoindolin-2-yl)piperidine-2,6-dione], under setting [1], the IC50 was < 100 nM.

For the compound `C[C@H]1CC[C@@H](N(c2cccc3c2CN(C2CCC(=O)NC2=O)C3=O)[C@H]2CC[C@@H](CN)CC2)CC1` (stereo partly drawn) [Compound 334, 3-(4-(((1s,4S)-4-(aminomethyl)cyclohexyl)((1s,4S)-4-methylcyclohexyl)amino)-1-oxoisoindolin-2-yl)piperidine-2,6-dione], the IC50 under setting [1] is > 1000 nM.

`N[C@H]1CC[C@H](N(CCCC2CCCOC2)c2cccc3c2CN(C2CCC(=O)NC2=O)C3=O)CC1` (stereo partly shown) [Compound 340, 3-(4-(((1r,4r)-4-aminocyclohexyl)(3-(tetrahydro-2H-pyran-3-yl)propyl)amino)-1-oxoisoindolin-2-yl)piperidine-2,6-dione, HCl]: under setting [1], the IC50 is 100 to 1000 nM.

In the case of `N[C@H]1CC[C@H](N(CCCC2CCCCO2)c2cccc3c2CN(C2CCC(=O)NC2=O)C3=O)CC1` (stereo partly shown) [Compound 341, 3-(4-(((1r,4r)-4-aminocyclohexyl)(3-(tetrahydro-2H-pyran-2-yl)propyl)amino)-1-oxoisoindolin-2-yl)piperidine-2,6-dione, HCl], the IC50 under setting [1] fell in the range of 100 to 1000 nM.

As for `N[C@H]1CC[C@H](N(CCC=C2CCOCC2)c2cccc3c2CN(C2CCC(=O)NC2=O)C3=O)CC1` (stereo partly shown) [Compound 344, 3-(4-(((1r,4r)-4-aminocyclohexyl)(3-(tetrahydro-4H-pyran-4-ylidene)propyl)amino)-1-oxoisoindolin-2-yl)piperidine-2,6-dione. Formic Acid], the IC50 under setting [1] is 100 to 1000 nM.

For `N[C@H]1CC[C@H](N(CCCC2CCOC2)c2cccc3c2CN(C2CCC(=O)NC2=O)C3=O)CC1` (stereo partly shown) [Compound 345, 3-(4-(((1r,4r)-4-aminocyclohexyl)(3-(tetrahydrofuran-3-yl)propyl)amino)-1-oxoisoindolin-2-yl)piperidine-2,6-dione], the IC50 under setting [1] fell in the range of 100 to 1000 nM.

Consider `N[C@H]1CC[C@H](N(CCCC2CCCO2)c2cccc3c2CN(C2CCC(=O)NC2=O)C3=O)CC1` (stereo partly shown) [Compound 346, 3-(4-(((1r,4r)-4-aminocyclohexyl)(3-(tetrahydrofuran-2-yl)propyl)amino)-1-oxoisoindolin-2-yl)piperidine-2,6-dione, HCl], for which, under setting [1], the IC50 lay within 100 to 1000 nM.

With `N[C@H]1CC[C@H](N(CCCC2COC2)c2cccc3c2CN(C2CCC(=O)NC2=O)C3=O)CC1` (stereo partly shown) [Compound 347, 3-(4-(((1r,4r)-4-aminocyclohexyl)(3-(oxetan-3-yl)propyl)amino)-1-oxoisoindolin-2-yl)piperidine-2,6-dione], the IC50 under setting [1] lay within 100 to 1000 nM.

Regarding `N[C@H]1CC[C@H](N(Cc2ccccc2)c2cccc3c2CN(C2CCC(=O)NC2=O)C3=O)CC1` (stereo partly shown) [Compound 349, 3-(4-(((1r,4r)-4-aminocyclohexyl)(benzyl)amino)-1-oxoisoindolin-2-yl)piperidine-2,6-dione], the IC50 under setting [1] is > 1000 nM.

For `N[C@H]1CC[C@@H](N(CCC2CC2)c2cccc3c2CN(C2CCC(=O)NC2=O)C3=O)C1` (stereo partly drawn) [Compound 352, 3-(4-(((1R,3S)-3-aminocyclopentyl)(2-cyclopropylethyl)amino)-1-oxoisoindolin-2-yl)piperidine-2,6-dione], under setting [1], the IC50 is < 100 nM.

Take `N[C@H]1CC[C@@H](N(CCCC2CCOCC2)c2cccc3c2CN(C2CCC(=O)NC2=O)C3=O)C1` (stereo partly drawn) [Compound 353, 3-(4-(((1R,3S)-3-aminocyclopentyl)(3-(tetrahydro-2H-pyran-4-yl)propyl)amino)-1-oxoisoindolin-2-yl)piperidine-2,6-dione]: the IC50 under setting [1] lay within 100 to 1000 nM.

`C[C@H]1CC[C@@H](N(c2cccc3c2CN(C2CCC(=O)NC2=O)C3=O)[C@@H]2CC[C@H](N)C2)CC1` (stereo partly drawn) [Compound 354, 3-(4-(((1R,3S)-3-aminocyclopentyl)((1s,4S)-4-methylcyclohexyl)amino)-1-oxoisoindolin-2-yl)piperidine-2,6-dione]: the IC50 under setting [1] was > 1000 nM.

As for `O=C1CCC(N2Cc3c(cccc3N(CCC3CC3)[C@@H]3CC[C@H](NCC4CC4)C3)C2=O)C(=O)N1` (stereo partly drawn) [Compound 355, 3-(4-((2-cyclopropylethyl)((1R,3S)-3-((cyclopropylmethyl)amino)cyclopenty 1)amino)-1-oxoisoindolin-2-yl)piperidine-2,6-dione], the IC50 under setting [1] is < 100 nM.

With `O=C1CCC(N2Cc3c(cccc3N(CCCC3CCOCC3)[C@@H]3CC[C@H](NCC4CC4)C3)C2=O)C(=O)N1` (stereo partly drawn) [Compound 356, 3-(4-(((1R,3S)-3-((cyclopropylmethyl)amino)cyclopenty 1)(3-(tetrahydro-2H-pyran-4-yl)propyl)amino)-1-oxoisoindolin-2-yl)piperidine-2,6-dione], the IC50 under setting [1] is < 100 nM.

As to `NC(=O)[C@H]1CC[C@@H](N(CCC2CC2)c2cccc3c2CN(C2CCC(=O)NC2=O)C3=O)C1` (stereo partly drawn) [Compound 359, (1S,3R)-3-((2-cyclopropylethyl)(2-(2,6-dioxopiperidin-3-yl)-1-oxoisoindolin-4-yl)amino)cyclopentane-1-carboxamide], under setting [1], the IC50 is < 100 nM.

`CNC(=O)[C@H]1CC[C@@H](N(CCC2CC2)c2cccc3c2CN(C2CCC(=O)NC2=O)C3=O)C1` (stereo partly drawn) [Compound 360, (1S,3R)-3-((2-cyclopropylethyl)(2-(2,6-dioxopiperidin-3-yl)-1-oxoisoindolin-4-yl)amino)-N-methylcyclopentane-1-carboxamide]: the IC50 under setting [1] is < 100 nM.

Take `NC(=O)[C@H]1CC[C@@H](N(CCCC2CCOCC2)c2cccc3c2CN(C2CCC(=O)NC2=O)C3=O)C1` (stereo partly drawn) [Compound 361, (1S,3R)-3-((2-(2,6-dioxopiperidin-3-yl)-1-oxoisoindolin-4-yl)(3-(tetrahydro-2H-pyran-4-yl)propyl)amino)cyclopentane-1-carboxamide]: under setting [1], the IC50 fell in the range of 100 to 1000 nM.

`CNC(=O)[C@H]1CC[C@@H](N(CCCC2CCOCC2)c2cccc3c2CN(C2CCC(=O)NC2=O)C3=O)C1` (stereo partly drawn) [Compound 362, (1S,3R)-3-((2-(2,6-dioxopiperidin-3-yl)-1-oxoisoindolin-4-yl)(3-(tetrahydro-2H-pyran-4-yl)propyl)amino)-N-methylcyclopentane-1-carboxamide]: the IC50 under setting [1] lay in the range of 100 to 1000 nM.

As for `N[C@H]1CO[C@H]2[C@@H]1OC[C@@H]2N(CCC1CC1)c1cccc2c1CN(C1CCC(=O)NC1=O)C2=O` (stereo partly drawn) [Compound 550, 3-(4-{[(3S,3aR,6S,6aR)-6-amino-hexahydrofuro[3,2-b]furan-3-yl](2-cyclopropylethyl)amino}-1-oxo-3H-isoindol-2-yl)piperidine-2,6-dione], the IC50 under setting [2] lay within 100 to 1000 nM.

Turning to `O=C1CCC(N2Cc3c(cccc3N(CCC3(C(F)(F)F)CC3)[C@H]3CC[C@H](NC4CC(F)(F)C4)CC3)C2=O)C(=O)N1` (stereo partly shown) [Compound 554, 3-(4-(((1r,4r)-4-((3,3-difluorocyclobutyl)amino)cyclohexyl)(2-(1-(trifluoromethyl)cyclopropyl)ethyl)amino)-1-oxoisoindolin-2-yl)piperidine-2,6-dione formate], the IC50 under setting [2] lay within 100 to 1000 nM.

As for `O=C1CCC(N2Cc3c(cccc3N(CCC3(C(F)(F)F)CC3)[C@H]3CC[C@@H](NC4CC(F)(F)C4)CC3)C2=O)C(=O)N1` (stereo partly shown) [Compound 554A, 3-(4-(((1s,4s)-4-((3,3-difluorocyclobutyl)amino)cyclohexyl)(2-(1-(trifluoromethyl)cyclopropyl)ethyl)amino)-1-oxoisoindolin-2-yl)piperidine-2,6-dione], the IC50 under setting [2] is 100 to 1000 nM.

Turning to `O=C1CCC(N2Cc3c(cccc3N(CC3CC4(CCC4)C3)[C@H]3CC[C@H](NC4CC(F)(F)C4)CC3)C2=O)C(=O)N1` (stereo partly shown) [Compound 557, 3-(1-oxo-4-{[(1r,4r)-4-[(3,3-difluorocyclobutyl)amino]cyclohexyl]({spiro[3.3]heptan-2-ylmethyl})amino}-3H-isoindol-2-yl)piperidine-2,6-dione], the IC50 under setting [2] is 100 to 1000 nM.

Regarding `N[C@H]1C[C@H](CN(CC2CC3(CCC3)C2)c2cccc3c2CN(C2CCC(=O)NC2=O)C3=O)C1` (stereo partly shown) [Compound 558-2, 3-[1-oxo-4-({[(1r,3r)-3-aminocyclobutyl]methyl}({spiro[3.3]heptan-2-ylmethyl})amino)-3H-isoindol-2-yl]piperidine-2,6-dione], the IC50 under setting [2] is < 100 nM.

Turning to `O=C1CCC(N2Cc3c(cccc3N(CCC3CC3)[C@H]3CC[C@H](NCC(=O)N4CCC(F)(F)CC4)CC3)C2=O)C(=O)N1` (stereo partly shown) [Compound 561, 3-{4-[(2-cyclopropylethyl)[(1r,4r)-4-{[2-(4,4-difluoropiperidin-1-yl)-2-oxoethyl]amino}cyclohexyl]amino]-1-oxo-3H-isoindol-2-yl}piperidine-2,6-dione], the IC50 under setting [2] is < 100 nM.

`CCN(CC)C(=O)CN[C@H]1CC[C@H](N(CCC2CC2)c2cccc3c2CN(C2CCC(=O)NC2=O)C3=O)CC1` (stereo partly shown) [Compound 562, N,N-diethyl-2-{[(1r,4r)-4-[(2-cyclopropylethyl)[2-(2,6-dioxopiperidin-3-yl)-1-oxo-3H-isoindol-4-yl]amino]cyclohexyl]amino}acetamide]: the IC50 under setting [2] is 100 to 1000 nM.
